Our source for the IC50 values is patent publication US20240083861A1, “HSD17B13 INHIBITORS AND USES THEREOF” (FL2022-001, Inc., priority 2020, published 2024).

Usually IC50 stands for the concentration needed to halve the response being measured.

Where only a bound is given, the exact number is not on record here.

The assay addresses T1, Recombinant human HSD17B13 enzyme (Homo sapiens, UniProt Q7Z5P4).
T1 sequence (Q7Z5P4 20-300): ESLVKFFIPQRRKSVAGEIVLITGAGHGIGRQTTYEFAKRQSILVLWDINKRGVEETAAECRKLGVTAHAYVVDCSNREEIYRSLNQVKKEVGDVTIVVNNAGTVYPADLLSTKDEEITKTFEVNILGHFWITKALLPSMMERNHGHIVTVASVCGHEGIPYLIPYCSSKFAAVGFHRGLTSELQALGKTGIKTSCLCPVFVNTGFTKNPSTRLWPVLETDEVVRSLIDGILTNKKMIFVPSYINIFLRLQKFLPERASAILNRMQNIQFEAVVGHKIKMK
The assay can be described thus: HSD17b13 NAD(P)H-Glo biochemical assay. Particulars: 50 uM estradiol, 1 mM NAD+, NAD(P)H-Glo luminescence; read-out: HSD17β13 IC50. The procedure: Example B-1: HSD17b13 NAD(P)H-Glo Biochemical Assay
Recombinant human HSD17B13 enzyme. Substrate: estradiol (Sigma β-Estradiol E8875), 100 mM in DMSO. Cofactor: NAD+ Grade I free acid (Sigma 10127965001), 20 mM in H2O. Assay buffer final concentration: 20 mM Tris pH7.4 with 0.002% Tween-20 and 0.02% BSA. Assay performed in 384 well solid bottom plate (Corning 3570). Enzymatic activity detected by NAD(P)H-Glo™ Detection System (Promega G9062).
Inhibitor compounds were serially diluted in DMSO and then further diluted in assay buffer to a 10× concentration consisting of 1% DMSO.
HSD17b13 enzyme was diluted in 1× assay buffer to the desired enzyme concentration based on the specific activity of the enzyme lot. 20 uL of diluted enzyme was added to each well along with 2.5 uL of 10× inhibitor solution. Assay plate was incubated at RT for 20 minutes, and then 2.5 uL of a 10× substrate/cofactor mix was added to each well for a final concentration of 50 uM estradiol and 1 mM NAD+. Assay plate was incubated at 37° C. for 3 hours. NAD(P)H-Glo™ Detection System reagents were prepared according to manufacturer's specifications, and 25 uL was added to each well. After incubating for 1 hour at RT, luminescence was measured.
On to `O=C(NC1CCC1)c1ccc2oc(-c3cc(O)c(F)c(F)c3)nc2c1` [Compound 1, N-Cyclobutyl-2-(3,4-difluoro-5-hydroxyphenyl)benzo[d]oxazole-5-carboxamide], for which the IC50 was < 100 nM.
The value for `O=C(NC1CC1)c1ccc2oc(-c3cc(O)c(F)c(F)c3)nc2c1` [Compound 1.01, N-Cyclopropyl-2-(3,4-difluoro-5-hydroxyphenyl)benzo[d]oxazole-5-carboxamide] was 1000 to 30000 nM; that for `O=C(NC1CCCC1)c1ccc2oc(-c3cc(O)c(F)c(F)c3)nc2c1` [Compound 1.02, N-Cyclopentyl-2-(3,4-difluoro-5-hydroxyphenyl)benzo[d]oxazole-5-carboxamide] was < 100 nM; that for `O=C(NC1CCCCC1)c1ccc2oc(-c3cc(O)c(F)c(F)c3)nc2c1` [Compound 1.03, N-Cyclohexyl-2-(3,4-difluoro-5-hydroxyphenyl)benzo[d]oxazole-5-carboxamide] was < 100 nM.
Take `CS(=O)(=O)N1CCN(C(=O)c2ccc3oc(-c4cc(O)c(F)c(F)c4)nc3c2)CC1` [Compound 1.04, (2-(3,4-Difluoro-5-hydroxyphenyl)benzo[d]oxazol-5-yl)(4-(methylsulfonyl)piperazin-1-yl)methanone]: the IC50 is 1000 to 30000 nM.
Consider `CS(=O)(=O)NC1CN(C(=O)c2ccc3oc(-c4cc(O)c(F)c(F)c4)nc3c2)C1` [Compound 1.05, N-(1-(2-(3,4-Difluoro-5-hydroxyphenyl)benzo[d]oxazole-5-carbonyl)azetidin-3-yl)methanesulfonamide], for which the IC50 is 100 to 1000 nM.
With `O=C(c1ccc2oc(-c3cc(O)c(F)c(F)c3)nc2c1)N1CCOCC1` [Compound 1.06, (2-(3,4-Difluoro-5-hydroxyphenyl)benzo[d]oxazol-5-yl)(morpholino)methanone], the IC50 lay in the range of 100 to 1000 nM.
Consider `O=C(NC1CCOCC1)c1ccc2oc(-c3cc(O)c(F)c(F)c3)nc2c1` [Compound 1.07, 2-(3,4-Difluoro-5-hydroxyphenyl)-N-(tetrahydro-2H-pyran-4-yl)benzo[d]oxazole-5-carboxamide], for which the IC50 was 100 to 1000 nM.
Turning to `COC1CCN(C(=O)c2ccc3oc(-c4cc(O)c(F)c(F)c4)nc3c2)CC1` [Compound 1.08, (2-(3,4-Difluoro-5-hydroxyphenyl)benzo[d]oxazol-5-yl)(4-methoxypiperidin-1-yl)methanone], the IC50 fell in the range of 1000 to 30000 nM.
The value for `O=C(NC12CC(C1)C2)c1ccc2oc(-c3cc(O)c(F)c(F)c3)nc2c1` [Compound 1.09, N-(Bicyclo[1.1.1]pentan-1-yl)-2-(3,4-difluoro-5-hydroxyphenyl)benzo[d]oxazole-5-carboxamide] was < 100 nM.
The value for `O=C(NC12CC(C1)C2)c1ccc2oc(-c3cc(O)c(F)c(C(F)(F)F)c3)nc2c1` [Compound 1.10, N-(Bicyclo[1.1.1]pentan-1-yl)-2-(4-fluoro-3-hydroxy-5-(trifluoromethyl)phenyl)benzo[d]oxa-zole-5-carboxamide] was < 100 nM; that for `O=C(NC12CC(O)(C1)C2)c1ccc2oc(-c3cc(O)c(F)c(C(F)(F)F)c3)nc2c1` [Compound 1.11, 2-(4-Fluoro-3-hydroxy-5-(trifluoromethyl)phenyl)-N-(3-hydroxybicyclo[1.1.1]pentan-1-yl)benzo[d]oxazole-5-carboxamide] was 100 to 1000 nM; that for `O=C(NC12CC(C1)C2)c1ccc2oc(-c3cc(C(F)(F)F)cc(O)c3F)nc2c1` [Compound 1.12, N-(Bicyclo[1.1.1]pentan-1-yl)-2-(2-fluoro-3-hydroxy-5-(trifluoromethyl)phenyl)benzo[d]oxa-zole-5-carboxamide] was < 100 nM.
For the molecule `O=C(NC12CC(C1)C2)c1ccc2oc(-c3cc(C(F)(F)F)c(F)c(O)c3F)nc2c1` [Compound 1.13, N-(Bicyclo[1.1.1]pentan-1-yl)-2-(2,4-difluoro-3-hydroxy-5-(trifluoromethyl)phenyl)benzo[d]oxa-zole-5-carboxamide], the IC50 is < 100 nM.
The value for `O=C(NC1CCC1)c1ccc2oc(-c3cc(C(F)(F)F)c(F)c(O)c3F)nc2c1` [Compound 1.14, N-Cyclobutyl-2-(2,4-difluoro-3-hydroxy-5-(trifluoromethyl)phenyl)benzo[d]oxa-zole-5-carboxamide] was < 100 nM.
Turning to `CN(C(=O)c1ccc2oc(-c3cc(C(F)(F)F)c(F)c(O)c3F)nc2c1)C1CCC1` [Compound 1.15, N-Cyclobutyl-2-(2,4-difluoro-3-hydroxy-5-(trifluoromethyl)phenyl)-N-methylbenzo[d]oxazole-5-carboxamide], the concentration for half-maximal inhibition (IC50) is 100 to 1000 nM.
The result for `CO[C@H]1C[C@H](NC(=O)c2ccc3oc(-c4cc(C(F)(F)F)c(F)c(O)c4F)nc3c2)C1` [Compound 1.16, 2-(2,4-Difluoro-3-hydroxy-5-(trifluoromethyl)phenyl)-N-(trans-3-methoxycyclobutyl)benzo[d]oxazole-5-carboxamide] reads 100 to 1000 nM; that for `O=C(c1ccc2oc(-c3cc(C(F)(F)F)c(F)c(O)c3F)nc2c1)N1CCC1` [Compound 1.17, Azetidin-1-yl(2-(2,4-difluoro-3-hydroxy-5-(trifluoromethyl)phenyl)benzo[d]oxa-zol-5-yl)methanone], 100 to 1000 nM; that for `CN1CC(NC(=O)c2ccc3oc(-c4cc(C(F)(F)F)c(F)c(O)c4F)nc3c2)C1` [Compound 1.18, 2-(2,4-Difluoro-3-hydroxy-5-(trifluoromethyl)phenyl)-N-(1-methylazetidin-3-yl)benzo[d]oxazole-5-carboxamide], 1000 to 30000 nM.
Consider `O=C(NC1COC1)c1ccc2oc(-c3cc(C(F)(F)F)c(F)c(O)c3F)nc2c1` [Compound 1.19, 2-(2,4-Difluoro-3-hydroxy-5-(trifluoromethyl)phenyl)-N-(oxetan-3-yl)benzo[d]oxazole-5-carboxamide], for which the 50% inhibitory concentration (IC50) was 100 to 1000 nM.
As for `CS(=O)(=O)N1CC(NC(=O)c2ccc3oc(-c4cc(C(F)(F)F)c(F)c(O)c4F)nc3c2)C1` [Compound 1.20, 2-(2,4-Difluoro-3-hydroxy-5-(trifluoromethyl)phenyl)-N-(1-(methylsulfonyl)azetidin-3-yl)benzo[d]oxazole-5-carboxamide], the 50% inhibitory concentration (IC50) was in the range of 100 to 1000 nM.
On to `O=C(NC12COC(C1)C2)c1ccc2oc(-c3cc(C(F)(F)F)c(F)c(O)c3F)nc2c1` [Compound 1.21, N-(2-Oxabicyclo[2.1.1]hexan-4-yl)-2-(2,4-difluoro-3-hydroxy-5-(trifluoromethyl)phenyl)benzo[d]oxa-zole-5-carboxamide], for which the half-inhibitory concentration (IC50) is 100 to 1000 nM.
The value for `O=C(NC1CCCC1)c1ccc2oc(-c3cc(C(F)(F)F)c(F)c(O)c3F)nc2c1` [Compound 1.22, N-Cyclopentyl-2-(2,4-difluoro-3-hydroxy-5-(trifluoromethyl)phenyl)benzo[d]oxa-zole-5-carboxamide] was < 100 nM; that for `CC1(NC(=O)c2ccc3oc(-c4cc(C(F)(F)F)c(F)c(O)c4F)nc3c2)CCC1` [Compound 1.23, 2-(2,4-Difluoro-3-hydroxy-5-(trifluoromethyl)phenyl)-N-(1-methylcyclobutyl)benzo[d]oxazole-5-carboxamide] was < 100 nM.
The value for `O=C(NC12CC(C1)C2)c1cc2nc(-c3cc(O)c(F)c(C(F)(F)F)c3)oc2cn1` [Compound 1.24, N-(Bicyclo[1.1.1]pentan-1-yl)-2-(4-fluoro-3-hydroxy-5-(trifluoromethyl)phenyl)oxazolo[5,4-c]pyridine-6-carboxamide] was < 100 nM.
